Experimental data from patent US9676715B2, “Bis-indolic derivatives, a process for preparing the same and their uses as a drug” (UNIVERSITE JOSEPH FOURIER, priority 2011, dated 2017).

Key:
[1] = system: S. pyogenes (group A) CIP 104226; assay: MIC, microdilution method (9.1); type: cell-based, Streptococcus pyogenes; settings: Streptococcus pyogenes, CIP104226, 18 h, read-out: MIC
In short: (§1)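 CLSI broth microdilution in Mueller Hinton broth, final inoculum 5×10^5 CFU/ml, with two-fold compound dilutions (0.50-128 mg/L final). Incubation at 37° C in ambient air, or 5% CO2 with 10% sheep blood for fastidious species.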

S. pneumoniae ATCC 6303 = assay: MIC, microdilution method (9.1); type: cell-based, Streptococcus pneumoniae; settings: Streptococcus pneumoniae, ATCC6303, 10% sheep blood, 5% CO2, 18 h, read-out: MIC
In short: as §1

[2] = system: S. agalactiae (group B) ATCC 12400; assay: MIC, microdilution method (9.1); type: cell-based, Streptococcus agalactiae; settings: Streptococcus agalactiae, ATCC12400, 18 h, read-out: MIC
In short: as §1

S. aureus ATCC 25923 = assay: MIC, microdilution method (9.1); type: cell-based, Staphylococcus aureus; settings: Staphylococcus aureus, ATCC25923, read after 18 h, read-out: MIC
In short: as §1

S. aureus ATCC 29213 = assay: MIC, microdilution method (9.1); type: cell-based, Staphylococcus aureus; settings: Staphylococcus aureus, ATCC29213, read after 18 h, read-out: MIC
In short: as §1

[3] = system: HCT116 (human colon tumor); assay: In vitro cytotoxicity; type: cell-based; settings: read-out: % of cellular growth inhibition
Method: (§2) In vitro cytotoxicity was assayed on three cell lines—KB (human mouth carcinoma), MCR5 (human lung fibroblast) and HCT116 (human colon tumor). Results are presented in table IV as % of cellular growth inhibition in presence of 10^−5 M and 10^−6 M of the tested bis-indolic derivatives.

[4] = system: MRC5 (human lung fibroblast); assay: In vitro cytotoxicity; type: cell-based; settings: read-out: % of cellular growth inhibition
Method: as §2

[5] = system: KB (human mouth carcinoma); assay: In vitro cytotoxicity; type: cell-based; settings: read-out: % of cellular growth inhibition
Method: as §2

E. faecium CIP 54.32 = assay: MIC, microdilution method (9.1); type: cell-based, Enterococcus faecium; settings: Enterococcus faecium, CIP54, 18 h, read-out: MIC
In short: as §1

[6] = system: Serratia marcescens CIP 103551; assay: MIC, microdilution method (9.1); type: cell-based; settings: CIP103551, 18 h
In short: as §1

[7] = system: Haemophilus influenzae ATCC 49766; assay: MIC, microdilution method (9.1); type: cell-based; settings: ATCC49766; Haemophilus influenzae ATCC 49766; 10% sheep blood, 5% CO2; 18 h; read-out: MIC
In short: as §1

[8] = system: Enterobacter cloacae ATCC13047; assay: MIC, microdilution method (9.1); type: cell-based; settings: 18 h
In short: as §1

S. pneumoniae ATCC 49619 = assay: MIC, microdilution method (9.1); type: cell-based; settings: Streptococcus pneumoniae, ATCC49619, 10% sheep blood, 5% CO2, 18 h
In short: as §1

[9] = system: Escherichia coli ATCC 25922; assay: MIC, microdilution method (9.1); type: cell-based; settings: ATCC25922, 18 h
In short: as §1

[10] = system: Klebsiella pneumoniae API ATCC 35657; assay: MIC, microdilution method (9.1); type: cell-based; settings: ATCC35657, 18 h, read-out: MIC
In short: as §1

[11] = system: Bacillus subtilis CIP 5262; assay: MIC, microdilution method (9.1); type: cell-based; settings: CIP5262, 18 h, read-out: MIC
In short: as §1

[12] = system: Acinetobacter baumanii ATCC 19606; assay: MIC, microdilution method (9.1); type: cell-based; settings: Acinetobacter baumannii, ATCC19606, 18 h, read-out: MIC
In short: as §1

[13] = system: Pseudomonas aeruginosa CIP 5933; assay: MIC, microdilution method (9.1); type: cell-based; settings: CIP5933, 18 h, read-out: MIC
In short: as §1

[14] = system: Listeria innocua CIP 80.11; assay: MIC, microdilution method (9.1); type: cell-based; settings: CIP80, 18 h, read-out: MIC
In short: as §1

[15] = system: S. epidermidis ATCC 12228; assay: MIC, microdilution method (9.1); type: cell-based, Staphylococcus epidermidis; settings: Staphylococcus epidermidis, ATCC12228, read after 18 h, read-out: MIC
In short: as §1

E. faecalis ATCC 29212 = assay: MIC, microdilution method (9.1); type: cell-based, Enterococcus faecalis; settings: Enterococcus faecalis, ATCC29212, 18 h, read-out: MIC
In short: as §1

[16] = system: Staphylococcus aureus 1199B (overexpression of the NorA efflux pump); assay: Efflux pump inhibition assay with sub-inhibitory ciprofloxacin; type: cell-based; settings: S. aureus 1199B
Method: (§3) The efflux pump inhibition potential of the bis-indolic derivatives was tested using two steps.
(§4) The following experimental protocol was used: indolic derivatives (initially solubilised in DMSO at 10 mg/mL) were dispensed in a 96-wells microplate by two fold serial dilutions in Muller-Hinton medium (MH, Bio Rad) using a Biomek 2000 (Beckman) handling robot. 100 μL of the bacterial inoculum (an overnight culture at 37° C. in 5 mL MH diluted 100-fold) was then added in each well. The total volume was 200 μL in each well and the final bacteria concentration 10^6 CFU/mL (CFU: colony forming unit). The highest final indolic derivative concentration was 128 mg/L. Growth was assayed with a microplate reader by monitoring absorption at 620 nm after 1, 2, 5, 7 and 24 h incubation at 37° C. In addition, the plates were read visually after 24 hours incubation. Cultures containing 5 μL DMSO were used as growth controls. In addition, two controls containing a sub-inhibitory or a inhibitory antibiotic concentration for the tested strain were performed. The antibiotics used were ampicillin (0.5 and 32 μg/mL) for E. coli, kanamycin (0.5 and 16 μg/mL) for S. aureus ATCC 25923, ciprofloxacin (4 and 64 mg/L) for S. aureus 1199B, ciprofloxacin (0.5 and 2 mg/L) for S. aureus K2378. All experiments were performed in duplicate.
(§5) Efflux pump inhibition assays were then performed against resistant Staphylococcus aureus strains SA 1199B and SA K2378 for bis-indolic derivatives. […] The minimal inhibitory concentration (MIC) of the bis-indolic compound allowing a complete inhibition of the bacterial growth in the presence of ciprofloxacin was determined.

[17] = system: Staphylococcus aureus K2378 (overexpresses the efflux pump NorA from a multicopy plasmid); assay: as above; type: cell-based; settings: S. aureus K2378; in the presence of ciprofloxacin 0.5 mg/L
Method: as §3, §4, §5

S. mitis CIP 103335 = assay: MIC, microdilution method (9.1); type: cell-based, Streptococcus mitis; settings: Streptococcus mitis, CIP103335, 18 h, read-out: MIC
In short: as §1

In the case of `CC(C)(C)OC(=O)NCC(NC(=O)c1c[nH]c2ccccc12)c1c[nH]c2ccccc12` (centres unmarked) [Compound 3a, tert-Butyl (2-(1H-indol-3-yl)-2-(1H-indole-3-carboxamido)ethyl)carbamate], the MIC [1] is reported as greater than 128 µg/mL, the MIC (S. pneumoniae ATCC 6303) is reported as greater than 128 µg/mL and the MIC [2] is reported as greater than 128 µg/mL. The MIC (S. aureus ATCC 25923) was greater than 128 µg/mL, the MIC (S. aureus ATCC 29213) was greater than 128 µg/mL and the inhibition at 10 µM ([3]; HCT-116, 10^−5 M) was 22 ± 5%. For the same compound, the inhibition at 1 µM ([3]; HCT-116, 10^−6 M) was 11%, the inhibition at 10 µM ([4]; 10^−5 M) was 14 ± 1% and the inhibition at 1 µM ([4]; 10^−6 M) was 2%. For the same compound, the inhibition at 10 µM ([5]; 10^−5 M) was 18 ± 1%, the inhibition at 1 µM ([5]; 10^−6 M) was 16% and the MIC (E. faecium CIP 54.32) was greater than 128 µg/mL. It also gave an MIC [6] greater than 128 µg/mL, an MIC [7] greater than 128 µg/mL and an MIC [8] greater than 128 µg/mL. For the same compound, the MIC (S. pneumoniae ATCC 49619) was greater than 128 µg/mL, the MIC [9] was greater than 128 µg/mL and the MIC [10] was greater than 128 µg/mL. The MIC [11] was greater than 128 µg/mL, the MIC [12] was greater than 128 µg/mL and the MIC [13] was greater than 128 µg/mL. It also gave an MIC [14] greater than 128 µg/mL, an MIC [15] greater than 128 µg/mL and an MIC (E. faecalis ATCC 29212) greater than 128 µg/mL. For the same compound, the “MIC, mg/L (Ciprofloxacin concentration, mg/L)” value (shortened to “MIC, mg/L”) ([16]; in the presence of ciprofloxacin 1 mg/L) was 2 (1) mg/L, the “MIC, mg/L” value ([16]; in the presence of ciprofloxacin 2 mg/L) was 0.5 (2) mg/L and the “MIC, mg/L” value ([16]; in the presence of ciprofloxacin 4 mg/L) was 0.25 (4) mg/L. The “MIC, mg/L” value [17] was 4 (0.5) mg/L and the MIC (S. mitis CIP 103335) was greater than 128 µg/mL.
